Measured values published in publication PMC4020744, “Modification, Biological Evaluation and 3D QSAR Studies of Novel 2-(1,3-Diaryl- 4,5-Dihydro-1H-Pyrazol-5-yl)Phenol Derivatives as Inhibitors of B-Raf Kinase” (PLoS ONE, 2014).

Experiments:
[1] = tested on: WM266.4 human melanoma cell line; experiment: Anti-proliferation assay (MTT); format: cell-based; conditions: WM 266-4, WM266.4 human melanoma cell growth, 24 h
Procedure: WM266.4 melanoma cells were cultured in DMEM/10% fetal bovine serum, in 5% CO2 water saturated atmosphere at 37°C. Cell suspensions (10000/mL) were prepared and 100 µL/well dispensed into 96-well plates (Costar) giving 1000 cells/well. The plates were returned to the incubator for 24h to allow the cells to reattach. These compounds were initially prepared at 20mM in DMSO. Aliquots (200 µL) were diluted into 20mL culture medium giving 200 µM, and 10 serial dilutions of 3x prepared. Aliquots (100 µL) of each dilution were added to the wells, giving doses ranging from 100 µM to 0.005 µM. After a further incubated at 37°C for 24h in a humidified atmosphere with 5% CO2, the cell viability was assessed by the conventional 3-(4,5-dimethylthiazol-2-yl)-2,5-diphenyltetrazolium bromide (MTT) reduction assay and carried out strictly according to the manufacturer instructions (Sigma). The absorbance at 590nm was recorded using LX300 Epson Diagnostic micro-plate reader. Then GI50 was calculated using SPSS 13.0 software.

B-Raf^V600E = experiment: V600E mutant B-Raf kinase inhibitory assay (B-Raf^V600E mediated MEK phosphorylation)
B-Raf^V600E, sequence (P28028 whole entry V585E): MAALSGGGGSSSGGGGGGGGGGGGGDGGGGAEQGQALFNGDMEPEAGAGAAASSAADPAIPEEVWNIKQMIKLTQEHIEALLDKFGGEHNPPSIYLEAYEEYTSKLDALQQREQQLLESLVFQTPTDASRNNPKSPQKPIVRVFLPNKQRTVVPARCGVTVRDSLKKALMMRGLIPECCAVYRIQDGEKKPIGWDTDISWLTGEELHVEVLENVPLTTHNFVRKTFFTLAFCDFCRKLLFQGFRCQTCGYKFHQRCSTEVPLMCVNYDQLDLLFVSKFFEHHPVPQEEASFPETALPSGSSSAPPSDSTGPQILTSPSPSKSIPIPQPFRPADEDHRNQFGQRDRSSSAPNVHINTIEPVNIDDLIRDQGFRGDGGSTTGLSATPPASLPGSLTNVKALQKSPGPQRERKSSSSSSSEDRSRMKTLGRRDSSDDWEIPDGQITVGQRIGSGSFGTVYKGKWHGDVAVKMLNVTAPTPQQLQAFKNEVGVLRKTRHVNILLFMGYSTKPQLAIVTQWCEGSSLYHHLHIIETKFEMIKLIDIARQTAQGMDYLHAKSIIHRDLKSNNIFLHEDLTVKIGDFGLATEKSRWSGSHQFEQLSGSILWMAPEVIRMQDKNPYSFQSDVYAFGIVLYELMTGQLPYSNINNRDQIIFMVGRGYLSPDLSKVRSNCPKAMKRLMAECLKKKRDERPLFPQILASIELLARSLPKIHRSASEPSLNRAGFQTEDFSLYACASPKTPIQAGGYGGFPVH
Procedure: Briefly, 7.5 ng Mouse Full-Length GST-tagged BRAF^V600E (Invitrogen, PV3849) was preincubated at room temperature for 1 h with 1 µL drug and 4 µL assay dilution buffer. The kinase assay was initiated when 5 µL of a solution containing 200 ng recombinant human full length, N-terminal His-tagged MEK1 (Invitrogen), 200 µM ATP, and 30 mM MgCl2 in assay dilution buffer was added. The kinase reaction was allowed to continue at room temperature for 25 min and was then quenched with 5 µL 5x protein denaturing buffer (LDS) solution. Protein was further denatured by heating for 5 min at 70°C. 10 µL of each reaction was loaded into a 15-well, 4–12% precast NuPage gel (Invitrogen) and run at 200 V, and upon completion, the front, which contained excess hot ATP, was cut from the gel and discarded. The gel was then dried and developed onto a phosphor screen.

GI50 [1] [nM] | melting point [°C] | IC50 (B-Raf^V600E) [nM] | SMILES
> 50000 | 38 to 41 | 71900 ± 6770 | Oc1ccccc1C1CC(c2ccc(F)cc2)=NN1c1ccccc1 (centres unmarked) [Compound C1, 2-(3-(4-fluorophenyl)-1-phenyl-4,5-dihydro-1H-pyrazol-5-yl)phenol]
2010 ± 130 | 54 to 56 | 500 ± 40 | Oc1ccccc1C1CC(c2ccc(Cl)cc2)=NN1c1ccccc1 (centres unmarked) [Compound C2, 2-(3-(4-chlorophenyl)-1-phenyl-4,5-dihydro-1H-pyrazol-5-yl)phenol]
2090 ± 180 | 65 to 68 | 630 ± 60 | Oc1ccccc1C1CC(c2ccc(Br)cc2)=NN1c1ccccc1 (centres unmarked) [Compound C3, 2-(3-(4-bromophenyl)-1-phenyl-4,5-dihydro-1H-pyrazol-5-yl)phenol]
2850 ± 230 | 32 to 34 | 1490 ± 110 | Cc1ccc(C2=NN(c3ccccc3)C(c3ccccc3O)C2)cc1 (centres unmarked) [Compound C4, 2-(1-phenyl-3-(p-tolyl)-4,5-dihydro-1H-pyrazol-5-yl)phenol]
1980 ± 170 | 35 to 37 | 510 ± 50 | COc1ccc(C2=NN(c3ccccc3)C(c3ccccc3O)C2)cc1 (centres unmarked) [Compound C5, 2-(3-(4-methoxyphenyl)-1-phenyl-4,5-dihydro-1H-pyrazol-5-yl)phenol]
1750 ± 120 | 57 to 59 | 150 ± 10 | Oc1ccccc1C1CC(c2ccc(Cl)c(Cl)c2)=NN1c1ccccc1 (centres unmarked) [Compound C6, 2-(3-(3,4-dichlorophenyl)-1-phenyl-4,5-dihydro-1H-pyrazol-5-yl)phenol]
4260 ± 360 | 60 to 63 | 2600 ± 230 | Oc1ccc(Cl)cc1C1CC(c2ccc(F)cc2)=NN1c1ccccc1 (centres unmarked) [Compound C7, 4-chloro-2-(3-(4-fluorophenyl)-1-phenyl-4,5-dihydro-1H-pyrazol-5-yl)phenol]
4390 ± 310 | 68 to 71 | 2660 ± 190 | Oc1ccc(Cl)cc1C1CC(c2ccc(Cl)cc2)=NN1c1ccccc1 (centres unmarked) [Compound C8, 4-chloro-2-(3-(4-chlorophenyl)-1-phenyl-4,5-dihydro-1H-pyrazol-5-yl)phenol]
2730 ± 210 | 90 to 93 | 1370 ± 130 | Oc1ccc(Cl)cc1C1CC(c2ccc(Br)cc2)=NN1c1ccccc1 (centres unmarked) [Compound C9, 2-(3-(4-bromophenyl)-1-phenyl-4,5-dihydro-1H-pyrazol-5-yl)-4-chlorophenol]
5370 ± 490 | 43 to 46 | 3240 ± 280 | Cc1ccc(C2=NN(c3ccccc3)C(c3cc(Cl)ccc3O)C2)cc1 (centres unmarked) [Compound C10, 4-chloro-2-(1-phenyl-3-(p-tolyl)-4,5-dihydro-1H-pyrazol-5-yl)phenol]
2430 ± 160 | 49 to 51 | 1070 ± 80 | COc1ccc(C2=NN(c3ccccc3)C(c3cc(Cl)ccc3O)C2)cc1 (centres unmarked) [Compound C11, 4-chloro-2-(3-(4-methoxyphenyl)-1-phenyl-4,5-dihydro-1H-pyrazol-5-yl)phenol]
1990 ± 130 | 77 to 79 | 500 ± 50 | Oc1ccc(Cl)cc1C1CC(c2ccc(Cl)c(Cl)c2)=NN1c1ccccc1 (centres unmarked) [Compound C12, 4-chloro-2-(3-(3,4-dichlorophenyl)-1-phenyl-4,5-dihydro-1H-pyrazol-5-yl)phenol]
4450 ± 410 | 73 to 76 | 2730 ± 190 | Oc1ccc(Br)cc1C1CC(c2ccc(F)cc2)=NN1c1ccccc1 (centres unmarked) [Compound C13, 4-bromo-2-(3-(4-fluorophenyl)-1-phenyl-4,5-dihydro-1H-pyrazol-5-yl)phenol]
3690 ± 320 | 88 to 91 | 2200 ± 200 | Oc1ccc(Br)cc1C1CC(c2ccc(Cl)cc2)=NN1c1ccccc1 (centres unmarked) [Compound C14, 4-bromo-2-(3-(4-chlorophenyl)-1-phenyl-4,5-dihydro-1H-pyrazol-5-yl)phenol]
2650 ± 190 | 104 to 106 | 1290 ± 100 | Oc1ccc(Br)cc1C1CC(c2ccc(Br)cc2)=NN1c1ccccc1 (centres unmarked) [Compound C15, 4-bromo-2-(3-(4-bromophenyl)-1-phenyl-4,5-dihydro-1H-pyrazol-5-yl)phenol]
4550 ± 440 | 59 to 63 | 2780 ± 210 | Cc1ccc(C2=NN(c3ccccc3)C(c3cc(Br)ccc3O)C2)cc1 (centres unmarked) [Compound C16, 4-bromo-2-(1-phenyl-3-(p-tolyl)-4,5-dihydro-1H-pyrazol-5-yl)phenol]
2030 ± 180 | 65 to 67 | 570 ± 50 | COc1ccc(C2=NN(c3ccccc3)C(c3cc(Br)ccc3O)C2)cc1 (centres unmarked) [Compound C17, 4-bromo-2-(3-(4-methoxyphenyl)-1-phenyl-4,5-dihydro-1H-pyrazol-5-yl)phenol]
1880 ± 150 | 95 to 98 | 340 ± 20 | Oc1ccc(Br)cc1C1CC(c2ccc(Cl)c(Cl)c2)=NN1c1ccccc1 (centres unmarked) [Compound C18, 4-bromo-2-(3-(3,4-dichlorophenyl)-1-phenyl-4,5-dihydro-1H-pyrazol-5-yl)phenol]
3760 ± 320 | 37 to 39 | 2260 ± 190 | Oc1c(Cl)cc(Cl)cc1C1CC(c2ccc(F)cc2)=NN1c1ccccc1 (centres unmarked) [Compound C19, 2,4-dichloro-6-(3-(4-fluorophenyl)-1-phenyl-4,5-dihydro-1H-pyrazol-5-yl)phenol]
3590 ± 280 | 42 to 43 | 2140 ± 190 | Oc1c(Cl)cc(Cl)cc1C1CC(c2ccc(Cl)cc2)=NN1c1ccccc1 (centres unmarked) [Compound C20, 2,4-dichloro-6-(3-(4-chlorophenyl)-1-phenyl-4,5-dihydro-1H-pyrazol-5-yl)phenol]
5130 ± 490 | 56 to 59 | 3120 ± 260 | Oc1c(Cl)cc(Cl)cc1C1CC(c2ccc(Br)cc2)=NN1c1ccccc1 (centres unmarked) [Compound C21, 2-(3-(4-bromophenyl)-1-phenyl-4,5-dihydro-1H-pyrazol-5-yl)-4,6-dichlorophenol]
23900 ± 1990 | 29 to 31 | 7370 ± 650 | Cc1ccc(C2=NN(c3ccccc3)C(c3cc(Cl)cc(Cl)c3O)C2)cc1 (centres unmarked) [Compound C22, 2,4-dichloro-6-(1-phenyl-3-(p-tolyl)-4,5-dihydro-1H-pyrazol-5-yl)phenol]
2380 ± 230 | 33 to 34 | 1010 ± 80 | COc1ccc(C2=NN(c3ccccc3)C(c3cc(Cl)cc(Cl)c3O)C2)cc1 (centres unmarked) [Compound C23, 2,4-dichloro-6-(3-(4-methoxyphenyl)-1-phenyl-4,5-dihydro-1H-pyrazol-5-yl)phenol]
2340 ± 170 | 63 to 65 | 970 ± 90 | Oc1c(Cl)cc(Cl)cc1C1CC(c2ccc(Cl)c(Cl)c2)=NN1c1ccccc1 (centres unmarked) [Compound C24, 2,4-dichloro-6-(3-(3,4-dichlorophenyl)-1-phenyl-4,5-dihydro-1H-pyrazol-5-yl)phenol]
8120 ± 750 |  |  | C#Cc1cccc(Nc2ncnc3cc(OCCOC)c(OCCOC)cc23)c1 [Erlotinib, reference compound]
210 ± 20 |  |  | CCCS(=O)(=O)Nc1ccc(F)c(C(=O)c2c[nH]c3ncc(-c4ccc(Cl)cc4)cc23)c1F [Vemurafenib, reference compound]
